Reference: US20230117324A1, “OXAZINE MONOACYLGLYCEROL LIPASE (MAGL) INHIBITORS” (Hoffmann-La Roche Inc., priority 2018, published 2023)

molecular target: T1, MAGL (recombinant wild-type) (Homo sapiens, UniProt Q99685); assay: MAGL inhibition, 4-NPA assay (hydrolysis of 4-nitrophenylacetate, absorbance at 405 nm); type: biochemical; details: 4-NPA assay (footnote [a]: values not marked [b])
T1 sequence (Q99685 1-303): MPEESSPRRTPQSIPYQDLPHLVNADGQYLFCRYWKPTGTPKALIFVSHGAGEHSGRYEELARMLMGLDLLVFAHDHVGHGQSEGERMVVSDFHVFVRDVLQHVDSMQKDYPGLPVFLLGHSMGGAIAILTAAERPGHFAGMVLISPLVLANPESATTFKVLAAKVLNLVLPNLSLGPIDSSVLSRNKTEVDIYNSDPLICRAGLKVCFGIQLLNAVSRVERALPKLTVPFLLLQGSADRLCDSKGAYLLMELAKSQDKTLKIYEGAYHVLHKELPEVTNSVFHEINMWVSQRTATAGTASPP
Method: Compounds were profiled for MAGL inhibitory activity by measuring the enzymatic activity of MAGL by following the hydrolysis of 4-nitrophenylacetate resulting in 4-nitrophenol, which absorbs at 405-412 nm (G. G. Muccioli, G. Labar, D. M. Lambert, Chem. Bio. Chem. 2008, 9, 2704-2710). This assay is hereinafter abbreviated “4-NPA assay”.
The assay was carried out in 384 well assay plates (black with clear bottom, non-binding surface treated, Corning Ref. 3655) in a total volume of 40 μL. Compound dilutions were made in 100% DMSO (VWR Chemicals 23500.297) in a polypropylene plate in 3-fold dilution steps to give a final concentration range in the assay from 25 μM to 1.7 nM. 1 μL compound dilutions (100% DMSO) were added to 19 μL MAGL (recombinant wild-type) in assay buffer (50 mM TRIS (GIBCO, 15567-027), 1 mM EDTA (Fluka, 03690-100 mL)). The plate was shaked for 1 min at 2000 rpm (Variomag Teleshake) and then incubated for 15 min at RT. To start the reaction, 20 μL 4-Nitrophenlyacetate (Sigma N-8130) in assay buffer with 6% EtOH was added. The final concentrations in the assay were 1 nM MAGL and 300 μM 4-Nitrophenylacetate. After shaking (1 min, 2000 rpm) and 5 min incubation at RT, the absorbance at 405 nm was measured for a first time (Molecular Devices, SpectraMax Paradigm). A second measurement was then done after incubation for 80 min at RT. From the two measurements, the slope was calculated by subtracting the first from the second measurement.

SMILES | IC50
O=C1CO[C@H]2CCN(C(=O)N3CCC(c4cn(CC5COC5)c5ccc(Cl)cc45)CC3)C[C@H]2N1 (single isomer, unassigned) [Example 23, (+)-or (−)-cis-6-(4-(5-Chloro-1-(oxetan-3-ylmethyl)-1H-indol-3-yl)piperidine-1-carbonyl)hexahydro-2H-pyrido[4,3-b][1,4]oxazin-3(4H)-one] | 3 nM
CC(C)(C)[Si](C)(C)OCCn1cc(C2CCN(C(=O)N3CC[C@@H]4OCC(=O)N[C@@H]4C3)CC2)c2cc(Cl)ccc21 (single isomer, unassigned) [Example 24, (+)-or (−)-cis-6-(4-(1-(2-((tert-Butyldimethylsilyl)oxy)ethyl)-5-chloro-1H-indol-3-yl)piperidine-1-carbonyl)hexahydro-2H-pyrido[4,3-b][1,4]oxazin-3(4H)-one] | 0.7 nM
O=C1CO[C@H]2CCN(C(=O)N3CCC(c4cn(CCO)c5ccc(Cl)cc45)CC3)C[C@H]2N1 (single isomer, unassigned) [Example 25, (+)- or (−)-cis-6-(4-(5-Chloro-1-(2-hydroxyethyl)-1H-indol-3-yl)piperidine-1-carbonyl)hexahydro-2H-pyrido[4,3-b][1,4]oxazin-3(4H)-one] | 2 nM
O=C1CO[C@H]2CCN(C(=O)N3CCC([C@H](CCO)c4ccc(F)cc4)CC3)C[C@H]2N1 (single isomer, unassigned) [Example 32, (−)-(4aR,8aS)--6-(4-((S or R)-1-(4-Fluorophenyl)-3-hydroxypropyl)piperidine-1-carbonyl)hexahydro-2H-pyrido[4,3-b][1,4]oxazin-3(4H)-one] | 203 nM
C[C@H](Oc1ccc(F)cc1Cl)C1CCN(C(=O)N2CC[C@@H]3OCC(=O)N[C@@H]3C2)CC1 (single isomer, unassigned) [Example 33, (+) or (−)-cis-6-(4-((S or R)-1-(2-Chloro-4-fluorophenoxy)ethyl)piperidine-1-carbonyl)hexahydro-2H-pyrido[4,3-b][1,4]oxazin-3(4H)-one] | 51 nM
C[C@@H](Oc1ccc(F)cc1Cl)C1CCN(C(=O)N2CC[C@@H]3OCC(=O)N[C@@H]3C2)CC1 (single isomer, unassigned) [Example 34, (+) or (−)-cis-6-(4-((R or S)-1-(2-Chloro-4-fluorophenoxy)ethyl)piperidine-1-carbonyl)hexahydro-2H-pyrido[4,3-b][1,4]oxazin-3(4H)-one] | 1 nM
O=C1CO[C@@H]2CCN(C(=O)N3CCC(C(c4ccc(F)cc4)c4ccc(F)cc4)CC3)C[C@@H]2N1 (single isomer, unassigned) [Example 36, (+) or (−)-cis-6-(4-(Bis(4-fluorophenyl)methyl)piperidine-1-carbonyl)hexahydro-2H-pyrido[4,3-b][1,4]oxazin-3(4H)-one] | 85 nM
O=C1CO[C@H]2CCN(C(=O)N3CCC(C(F)(F)c4ccc(F)cc4Cl)CC3)C[C@H]2N1 (single isomer, unassigned) [Example 39, (+) or (−)-cis-6-(4-((2-Chloro-4-fluorophenyl)difluoromethyl)piperidine-1-carbonyl)hexahydro-2H-pyrido[4,3-b][1,4]oxazin-3(4H)-one] | 21 nM
Cn1nc(C2CCN(C(=O)N3CC[C@@H]4OCC(=O)N[C@@H]4C3)CC2)c2ccc(Cl)cc21 (single isomer, unassigned) [Example 42, (+) or (−)-cis-6-(4-(6-Chloro-1-methyl-1H-indazol-3-yl)piperidine-1-carbonyl)hexahydro-2H-pyrido[4,3-b][1,4]oxazin-3(4H)-one] | 103 nM
Cc1cccc(C(c2ccccc2)C2CCN(C(=O)N3CC[C@@H]4OCC(=O)N[C@@H]4C3)CC2)c1 (single isomer, unassigned) [Example 80, (4aR,8aS)-6-[4-[(S or R)-m-Tolyl(phenyl)methyl]piperidine-1-carbonyl]-4,4a,5,7,8,8a-hexahydropyrido[4,3-b][1,4]oxazin-3-one] | 0.4 nM
O=C1CO[C@H]2CCN(C(=O)N3CCC(C(CCO)c4ccc(F)cc4)CC3)C[C@H]2N1 (single isomer, unassigned; (+)) [Example 31, (+)-(4aR,8aS)-6-(4-((R or S)-1-(4-Fluorophenyl)-3-hydroxypropyl)piperidine-1-carbonyl)hexahydro-2H-pyrido[4,3-b][1,4]oxazin-3(4H)-one] | 17 nM
O=C1CO[C@@H]2CCN(C(=O)N3CCN(C(c4ccc(F)cc4)c4ccc(F)cc4)CC3)C[C@@H]2N1 (stereo in doubt) [Example 13, (−)-(cis)-6-(4-(bis(4-Fluorophenyl)methyl)piperazine-1-carbonyl)hexahydro-2H-pyrido[4,3-b][1,4]oxazin-3(4H)-one] | 88 nM
O=C1CO[C@H]2CCN(C(=O)N3CC(C(c4ccc(F)cc4)c4ccc(F)cc4)C3)C[C@H]2N1 [Example 82, (4aR,8aS)-6-(3-(bis(4-Fluorophenyl)methyl)azetidine-1-carbonyl)hexahydro-2H-pyrido[4,3-b][1,4]oxazin-3(4H)-one] | 1200 nM

Second part, the compound after the results:

IC50 | SMILES
2400 nM | COc1cncc(C2CCN(C(=O)N3CC[C@@H]4OCC(=O)N[C@@H]4C3)CC2)c1 (single isomer, unassigned) [Example 35, (+) or (−)-cis-6-(4-(5-Methoxypyridin-3-yl)piperidine-1-carbonyl)hexahydro-2H-pyrido[4,3-b][1,4]oxazin-3(4H)-one]
34 nM | O=C1CO[C@H]2CCN(C(=O)N3CCC(C(F)(F)c4ccc(Cl)cc4)CC3)C[C@H]2N1 (single isomer, unassigned) [Example 37, (+) or (−)-cis-6-(4-((4-Chlorophenyl)difluoromethyl)piperidine-1-carbonyl)hexahydro-2H-pyrido[4,3-b][1,4]oxazin-3(4H)-one]
644 nM | O=C1CO[C@H]2CCN(C(=O)N3CCC(c4ccc(OC(F)(F)F)cn4)CC3)C[C@H]2N1 (single isomer, unassigned) [Example 38, (+) or (−)-cis-6-(4-(5-(Trifluoromethoxy)pyridin-2-yl)piperidine-1-carbonyl)hexahydro-2H-pyrido[4,3-b][1,4]oxazin-3(4H)-one]
683 nM | CCc1cncc(C2CCN(C(=O)N3CC[C@@H]4OCC(=O)N[C@@H]4C3)CC2)c1 (single isomer, unassigned) [Example 40, (+) or (−)-cis-6-(4-(5-Ethylpyridin-3-yl)piperidine-1-carbonyl)hexahydro-2H-pyrido[4,3-b][1,4]oxazin-3(4H)-one]
485 nM | CC(F)(F)c1ccc(C2CCN(C(=O)N3CC[C@@H]4OCC(=O)N[C@@H]4C3)CC2)nc1 (single isomer, unassigned) [Example 41, (+) or (−)-cis-6-(4-(5-(1,1-Difluoroethyl)pyridin-2-yl)piperidine-1-carbonyl)hexahydro-2H-pyrido[4,3-b][1,4]oxazin-3(4H)-one]
703 nM | O=C1CO[C@H]2CCN(C(=O)N3CCC(c4cncc(C(F)(F)F)c4)CC3)C[C@H]2N1 [Example 29, (4aR,8aS)-6-(4-(5-(Trifluoromethyl)pyridin-3-yl)piperidine-1-carbonyl)hexahydro-2H-pyrido[4,3-b][1,4]oxazin-3(4H)-one]
25 nM | O=C1CO[C@H]2CCN(C(=O)N3CCC(C(F)(F)c4ccc(C(F)(F)F)cc4)CC3)C[C@H]2N1 [Example 30, (4aR,8aS)-6-(4-(Difluoro(4-(trifluoromethyl)phenyl)methyl)piperidine-1-carbonyl)hexahydro-2H-pyrido[4,3-b][1,4]oxazin-3(4H)-one]
